In BindingDB's records for doi:10.1021/jm960486n (Eli Lilly, 1997) one finds IC50 data, which are given here for 5 molecules.

Assay [1] concerns the target Phospholipase A2 group IB, pancreatic (Homo sapiens) (UniProt P04054). Kind of assay: Inhibitory activity against human pancreatic Phospholipase A2.
Assay [2] deals with Phospholipase A2, pancreatic group IB (Sus scrofa). Nature of the assay: Inhibitory activity against porcine pancreatic Phospholipase A2.

Phospholipase A2 group IB, pancreatic (Homo sapiens), sequence (P04054 whole entry, looked up): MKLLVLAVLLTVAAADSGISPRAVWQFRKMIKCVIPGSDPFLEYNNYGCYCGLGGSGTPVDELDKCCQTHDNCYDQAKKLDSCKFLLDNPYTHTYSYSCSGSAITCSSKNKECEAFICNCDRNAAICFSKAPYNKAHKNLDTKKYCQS

As usually defined, the IC50 is the concentration needed to halve the response being measured. Low readings indicate greater potency, high ones weaker potency. Consider `Cc1c(CC(N)=O)c2c(OCC(=O)O)cccc2n1Cc1cccc(Cl)c1` [Sodium; [3-carbamoylmethyl-1-(3-chloro-benzyl)-2-methyl-1H-indol-4-yloxy]-acetate], for which the values for the half-inhibitory concentration (IC50) in assay [1] and in assay [2] were 1.2 µM and 0.02 µM, respectively.
The like results for `Cc1c(CC(N)=O)c2cc(OCc3ccccc3C(=O)O)ccc2n1Cc1ccccc1` [2-(1-Benzyl-3-carbamoylmethyl-2-methyl-1H-indol-5-yloxymethyl)-benzoic acid] were, in that order, 22.5 µM and 7.5 µM.
In assay [1], `NC(=O)Cc1c(Br)n(Cc2ccccc2)c2ccc(OCCCC(=O)O)cc12` [4-(1-Benzyl-2-bromo-3-carbamoylmethyl-1H-indol-5-yloxy)-butyric acid] came in with an IC50 of 15.9 µM.
Regarding `Cc1c(CC(N)=O)c2c(OCC(=O)O)cccc2n1Cc1ccccc1-c1ccccc1` [Sodium; (1-biphenyl-2-ylmethyl-3-carbamoylmethyl-2-methyl-1H-indol-4-yloxy)-acetate], the IC50 in assay [1] was 4.09 µM; in assay [2], 0.014 µM.
For `NC(=O)Cc1c(Br)n(Cc2ccccc2)c2ccc(OCCCP(=O)(O)O)cc12` [[3-(1-Benzyl-2-bromo-3-carbamoylmethyl-1H-indol-5-yloxy)-propyl]-phosphonic acid], the half-inhibitory concentration (IC50) amounted to 6.2 µM in assay [1] and 2.2 µM in assay [2].
